Experimental data: PMC3764026, “Adaptive Evolution of Escherichia coli to an α-Peptide/β-Peptoid Peptidomimetic Induces Stable Resistance” (PLoS ONE, 2013)
In brackets after ≈: the same amount, converted by molar mass. Several values for one entry are separate records, joined by “and”; a condition that tells them apart may be missing. Equal values may be shown once. Read-outs that look alike come from different tables or passages of the source.

Assays:
[1] = tested on: Escherichia coli ATCC 25922; type: cell-based; conditions: wild-type E. coli ATCC 25922; MHB pH 7.4, 5×10^5 CFU/mL, 37°C, 18–20 h
Description: All experiments were performed with Escherichia coli ATCC 25922. Stock cultures of the wild-type strain and lineage isolates were stored at –80°C in 4% (w/v) glycerol, 0.5% (w/v) glucose, 2% (w/v) skimmed milk powder and 3% (w/v) tryptone soy powder. Lineage populations were frozen at –80°C in 50% (w/v) glycerol. All experiments were performed at 37°C. Experiments were carried out in cation-adjusted Mueller Hinton II broth (MHB) (Becton Dickinson 212322) adjusted to pH 7.4 or in 1% (w/v) peptone (Becton Dickinson 211677) for MIC determination of natural AMPs. Brain Heart Infusion (BHI) (CM1135) with agar (VWR 20768.292) 1.5% as gelling agent was used throughout for colony plating.
(§1) MIC was determined by using the micro-dilution method according to guidelines of the Clinical and Laboratory Standards Institute. Peptidomimetic 1 and erythromycin 1∶2 serial dilutions were prepared from 1024 µg/mL stock solutions to give a final range of 512-0.5 µg/mL in the wells. Ampicillin 1∶2 serial dilutions were prepared from a 256 µg/mL stock solution to give a final range of 128-0.13 µg/mL in the wells. Polymyxin B and gentamicin 1∶2 serial dilutions were prepared from a 64 µg/mL stock solution to give a final range of 32-0.03 µg/mL in the wells. Also, 1∶2 serial dilutions of the AMPs KR-12, IsCTp, melittin and PEP-1-K were prepared from 64 µg/mL stock solutions to give a final range of 32-0.03 µg/mL in the wells; however this was performed in 1% peptone instead of in MHB since activity was drastically diminished in the latter (not shown).
The population lineages were tested for their susceptibility towards peptidomimetic 1, polymyxin B, gentamicin and ampicillin. Single-culture isolates selected from these populations were additionally tested against peptidomimetic 1, polymyxin B, erythromycin and the five reference AMPs. To estimate the level of cross-resistance to closely related peptidomimetics, MIC determinations were performed for peptidomimetics 2 and 3 (Figure 1) towards selected isolates. […]

[2] = tested on: E. coli ATCC 25922 lineages adapted to peptidomimetic 1; type: cell-based, Escherichia coli; conditions: two technical duplicates; for MIC against peptidomimetic 1 after selection: MHB pH 7.4, 37°C, 18–20 h
Description: (§2) Continuous selection of resistance was performed for peptidomimetic 1 (Figure 1) and for the clinically relevant natural antimicrobial peptide, polymyxin B. A bacterial suspension of a single colony of E. coli ATCC 25922 was re-inoculated (10 µl) five times in unsupplemented MHB (990 µl). It was then re-inoculated in MHB supplemented with peptidomimetic 1 (ten lineages) or polymyxin B (ten lineages), and after ten re-inoculations at constant peptidomimetic or polymyxin B concentration, the concentrations were doubled. […] Four lineages grown in MHB with MilliQ water were included as control. Re-inoculations were performed twice a day, but were reduced to once a day when growth was slower as assessed by turbidity of the cultures. The total number of passages (supplemented with peptidomimetic/AMP) was 77 times equivalent to approx. 500 generations. For each increase in concentration the lineages were preserved as freezing stocks. Ten colony isolates were randomly selected from each lineage population at 32×MIC and preserved as freezing stocks.
as §1
(§3) The population lineages were tested for their susceptibility towards peptidomimetic 1, polymyxin B, gentamicin and ampicillin. Single-culture isolates selected from these populations were additionally tested against peptidomimetic 1, polymyxin B, erythromycin and the five reference AMPs. To estimate the level of cross-resistance to closely related peptidomimetics, MIC determinations were performed for peptidomimetics 2 and 3 (Figure 1) towards selected isolates. The bacterial suspensions were grown overnight in MHB at 37°C for determination of the population MIC, or individual isolates were grown overnight on non-selective BHI agar at 37°C. […] In all experiments, bacterial cells were suspended in 0.9% saline to give a turbidity of 0.13 at OD546 (approximately 1×10^8 CFU/mL) and diluted in MHB pH 7.4 to a final concentration of 5×10^5 CFU/mL in each well. Polypropylene plates (Nunc 442587) were used to minimize peptide binding, and the incubation time was 18–20 hours at 37°C. Incubation time was additionally extended up to 44 hours for the individual isolates due to a potential effect of growth rate on the outcome, but no effect was seen of this (not shown). MIC was found in a minimum of two technical (population MIC) or biological (isolate MIC) replicates as the lowest concentration of the AMP or antibiotic where no visible growth was observed.
(§4) Frozen stocks were reconditioned in unsupplemented MHB media for five transfers (∼35 generations) at 37°C. The heritability of resistance was established through MIC determination of bacterial populations as described above.

[3] = tested on: E. coli ATCC 25922 lineages adapted to polymyxin B; type: cell-based, Escherichia coli; conditions: polymyxin B-exposed lineages, ~35 generations unsupplemented; became similar to controls; not shown
Description: as §2, §1, §3, §4

[4] = tested on: E. coli ATCC 25922 control lineages; type: cell-based, Escherichia coli; conditions: two technical duplicates; for MIC against peptidomimetic 1 after selection: MHB
Description: as §2, §1, §3, §4

For `CC(=O)N[C@@H](CCCCNC(=N)N)C(=O)N(CCC(=O)N[C@@H](CCCCNC(=N)N)C(=O)N(CCC(=O)N[C@@H](CCCCNC(=N)N)C(=O)N(CCC(=O)N[C@@H](CCCCNC(=N)N)C(=O)N(CCC(=O)N[C@@H](CCCCNC(=N)N)C(=O)N(CCC(=O)N[C@@H](CCCCNC(=N)N)C(=O)N(CCC(N)=O)[C@@H](C)c1ccccc1)[C@@H](C)c1ccccc1)[C@@H](C)c1ccccc1)[C@@H](C)c1ccccc1)[C@@H](C)c1ccccc1)[C@@H](C)c1ccccc1` [peptidomimetic 1], the “wt MIC” value [1] was 8 µg/mL, the “MIC against peptidomimetic 1 after 35 generations w/o selection” value (“MIC … after 35 generations w/o selection” for short) ([2]; peptidomimetic-exposed lineage 1, five passages in unsupplemented MHB) was 128 to 256 µg/mL and the “MIC … after 35 generations w/o selection” value ([2]; peptidomimetic-exposed lineage 2, five passages in unsupplemented MHB) was 256 µg/mL (≈ 120 µM). For the same molecule, the “MIC against peptidomimetic 1 after selection” value (shortened to “MIC … after selection”) ([2]; peptidomimetic-exposed lineage 2, population outgrown at 32×wt MIC) was 256 µg/mL (≈ 120 µM), the “MIC … after 35 generations w/o selection” value ([2]; peptidomimetic-exposed lineage 3, five passages in unsupplemented MHB) was 128 µg/mL (≈ 60 µM) and the “MIC … after 35 generations w/o selection” value ([2]; peptidomimetic-exposed lineage 4, five passages in unsupplemented MHB) was 128 µg/mL (≈ 60 µM). For the same molecule, the “MIC … after selection” value ([2]; peptidomimetic-exposed lineage 4, population outgrown at 32×wt MIC) was 256 µg/mL (≈ 120 µM), the “MIC … after 35 generations w/o selection” value ([2]; peptidomimetic-exposed lineage 5, five passages in unsupplemented MHB) was 128 µg/mL (≈ 60 µM) and the “MIC … after selection” value ([2]; peptidomimetic-exposed lineage 5, population outgrown at 32×wt MIC) was 128 µg/mL and 64 to 128 µg/mL. For the same molecule, the “MIC … after 35 generations w/o selection” value ([2]; peptidomimetic-exposed lineage 6, five passages in unsupplemented MHB) was 64 to 128 µg/mL, the “MIC … after 35 generations w/o selection” value ([2]; peptidomimetic-exposed lineage 7, five passages in unsupplemented MHB) was 128 µg/mL (≈ 60 µM) and the “MIC … after selection” value ([2]; peptidomimetic-exposed lineage 7, population outgrown at 32×wt MIC) was 128 µg/mL (≈ 60 µM). The “MIC … after 35 generations w/o selection” value ([2]; peptidomimetic-exposed lineage 8, five passages in unsupplemented MHB) was 32 to 64 µg/mL, the “MIC … after 35 generations w/o selection” value ([2]; peptidomimetic-exposed lineage 9, five passages in unsupplemented MHB) was 128 µg/mL (≈ 60 µM) and the “MIC … after 35 generations w/o selection” value ([2]; peptidomimetic-exposed lineage 10, five passages in unsupplemented MHB) was 32 µg/mL (≈ 15 µM). For the same molecule, the “MIC … after selection” value ([2]; peptidomimetic-exposed lineage 10, population outgrown at 32×wt MIC) was 256 µg/mL (≈ 120 µM), the “cross-resistance after removal of the selection pressure” value [3] was “lost” and the “MIC … after 35 generations w/o selection” value ([4]; Control 1 lineage (MilliQ water)) was 16 to 32 µg/mL. The “MIC … after selection” value ([4]; Control 1 lineage (MilliQ water, no peptidomimetic)) was 32 µg/mL (≈ 15 µM), the “MIC … after 35 generations w/o selection” value ([4]; Control 2 lineage (MilliQ water)) was 8 µg/mL (≈ 3.75 µM) and the “MIC … after selection” value ([4]; Control 2 lineage (MilliQ water, no peptidomimetic)) was 8 µg/mL (≈ 3.75 µM).
